Data reported in patent US5037828A, “Piperazine derivatives, uses thereof and pharmaceutical compositions containing them” (Boehringer Mannheim GmbH, priority 1989, dated 1991).

Legend:
[1] = tested on: anaphylactoid reactions in rats induced by dextran; settings: in words, U.S. Pat. No. 3,997,666; cited from earlier work
[2] = tested on: isolated rat aortic strips; test: In vitro vasorelaxation of isolated rat aortic strips precontracted with noradrenaline; settings: 25 min, 3 × 10^-6 M, noradrenaline 10^-5 M precontraction, end of 25 min incubation, mean of 4-6 experiments
Method: 2. In vitro investigations were performed on isolated rat aortic strips precontracted with noradrenaline (10^-5 M). The test compounds were added to the bath solution at concentrations of 3×10^-6 M in order to test for vasorelaxation. The relaxation was evaluated at the end of an incubation period of 25 min. High values indicate a strong vasorelaxing effect.

[3] = tested on: conscious spontaneously hypertensive rats; test: Blood pressure lowering activity in conscious spontaneously hypertensive rats; assay type: in vivo, rat; settings: 10 mg/kg i.v.; 15 min after administration; mean arterial blood pressure; mean of 4-6 experiments
Method: 3. The blood pressure lowering activity of the test compounds was investigated in conscious spontaneously hypertensive rats. The blood pressure response to the test compounds was evaluated by means of continuous monitoring of the mean arterial blood pressure via an implanted catheter, electromagnetic transducer and a direct recording system. The test compounds were injected at a dose of 10 mg/kg i.v. and the blood pressure response was determined 15 min after administration.

[4] = in words; U.S. Pat. No. 3,997,666; cited from earlier work
α1 -receptor = test: Receptor binding study, displacement of tritium-labeled prazosin in brain membrane homogenates; settings: mean of 4-6 experiments, read-out: α1 -receptor affinity IC50
Method: 1. The affinities of the compounds were studied in receptor binding studies using prazosin as tritium-labeled ligand. The investigations were performed in brain membrane homogenates. The affinity was expressed as IC50 -value (the IC50 -value is the concentration in nmol/l which displaces 50% of the labeled ligand). Low values indicate a high affinity.

| Structure (SMILES) | inhibition of anaphylactoid reactions induced by dextran [1] | inhibition at 3 µM [2] [%] | blood pressure decrease [3] [mmHg] | antihypertensive properties [4] | IC50 (α1 -receptor) [nM] |
| --- | --- | --- | --- | --- | --- |
| COc1ccccc1N1CCN(CC(O)COc2cccc3ccccc23)CC1 (centres unmarked) [naftopidil, 1(2-methoxyphenyl)-4-/3-(naphth-1-yloxy)-2-hydroxypropyl/-piperazine] | inhibits anaphylactoid reactions in rats induced by dextran | 53 | 31 | possesses antihypertensive properties | 235 |
| COc1ccccc1N1CCN(CC(O)COc2ccc(O)c3ccccc23)CC1 (centres unmarked) [Example 3, 1-(2-Methoxyphenyl)-4-[3-(4-hydroxynaphth-1-yloxy)-2-hydroxypropyl]-piperazine] |  | 85 | 48 |  | 52.7 |
